Test results reported in US20150025031A1, “METABOLIC DOWNREGULATION FOR CELL SURVIVAL” (WAKE FOREST UNIVERSITY HEALTH SCIENCES, priority 2012, published 2015).
Entries after “also recorded” stand apart in the source; their conditions may differ.

Assays:
C2C12 mouse myoblasts [1] = conditions: 5 mM, regardless of the presence of ADA
ischemic skin flap = assay: Ischemic skin flap model; type: in vivo, nude mice; conditions: 100 mM in 2% agarose gel, vs control
Description: (§1) Skin flap model: The u-shaped skin flaps were created on the back of the nude mice, then silicone sheet with 100 mM CDA-containing 2% agarose gel on top of it was placed subcutaneously between muscle and skin layer (FIGS. 9A-9B). Control group received only the materials without CDA incorporated (n=3 per each group). At day 3, the flap necrosis was photographed, and H&E sections were prepared and microscopically examined.
as §1, with “The” for “Skin flap model: The”, “gel (A9045, Sigma)” for “gel”, “(FIG. 29A).” for “(FIGS. 9A-9B).”, “(n=3).” for “(n=3 per each group).”, “were” for “were prepared and”

[2] = target: T1, adenosine deaminase (ADA) (Homo sapiens, UniProt P00813); assay: Cell viability with adenosine derivatives in presence or absence of ADA, normoxic conditions (Example 2); type: cell-based; conditions: for conversion by ADA / stability towards adenosine degrading enzymes: presence of ADA
T1 construct: purchased Sigma
T1 sequence (P00813 1-363): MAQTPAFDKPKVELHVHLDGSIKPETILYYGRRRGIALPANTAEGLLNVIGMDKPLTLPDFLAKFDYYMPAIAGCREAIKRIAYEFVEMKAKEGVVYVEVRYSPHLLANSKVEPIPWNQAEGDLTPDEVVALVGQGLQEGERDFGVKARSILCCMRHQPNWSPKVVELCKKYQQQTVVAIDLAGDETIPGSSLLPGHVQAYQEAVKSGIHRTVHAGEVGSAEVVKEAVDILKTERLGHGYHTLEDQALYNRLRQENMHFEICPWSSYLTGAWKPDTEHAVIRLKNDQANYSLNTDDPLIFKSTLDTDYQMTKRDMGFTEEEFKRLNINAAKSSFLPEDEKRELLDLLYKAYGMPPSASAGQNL
Description: Three known ADA inhibitors were examined to evaluate the efficacies of adenosine derivatives: cladribine, pentostatin, and fludarabine phosphate. They have similar structures and molecular weights compared to adenosine, but different functional groups in the structures. Metabolic rate of cells were indirectly analyzed by cell viability in the presence or absence of adenosine derivatives and ADA in various doses. Cell viability with the drugs was evaluated under normoxic conditions.
Adenosine (Sigma-Aldrich), cladribine (Sigma, 2-Chloro-2′-deoxyadenosine), pentostatin (Tocris biosciences), and fludarabine phosphate (LGM Pharma) were used throughout this study.

C2C12 mouse myoblasts [3] = system: C2C12 mouse myoblasts
[4] = system: tibialis anterior (TA) muscle; assay: Compartment syndrome (compression injury) model, tibialis anterior muscle function; type: in vivo, Sprague Dawley rats; conditions: for recovery in muscle function vs control group / percent recovery of muscle function: tetanic outcome at 100 Hz
Description: Compartment syndrome model: Neonatal blood pressure cuffs were placed on the hind limbs of Sprague Dawley rats. A pressure of 130-140 mmHg was held for 3 hrs to induce compartment syndrome in the tibialis anterior (TA) muscle. The experimental group received 50 mM CDA in 300 uL saline daily up to day 2 after injury whereas the control group only received an equal volume of saline (n=6 per each group). The measurement of muscle tetanic force was used to assess in vivo muscle function at before injury and day 3 & 7.
All animal studies were performed in strict compliance with Wake Forest University IACUC and NIH guidelines. Male Lewis rats (6-8 weeks old, Harlan) were anesthetized with 2-3% isofluorane prior to all procedures. A #2 sized neonatal blood pressure cuff (Trimline Medical Products Tempa-Kuff) was tightened around the hind limb proximal to the extensor digitorum longus (EDL) muscle. The time and amount of pressure used varied as indicated. Due to the extended length of anesthesia, rats were administered IP injections of saline over the course of the procedure. Rats were euthanized at 1, 2, 4, 7, 14 or 35d post injury. At least 3 separate experiments were analyzed.
Neonatal blood pressure cuffs were placed on the hind limbs of Sprague Dawley rats. A pressure of 130-140 mmHg was held for 3 hours to induce compartment syndrome in the tibialis anterior (TA) muscle. The experimental group received injection of 30 mM cladribine in 200 μL saline daily up to day 2 after injury whereas the control group only received an equal volume of saline (n=6). The measurement of muscle tetanic force was used to assess in vivo muscle function at before and right after injury, day 3, 7, 11 and 14.
Contractile function (i.e., torque-frequency relationship) of the left anterior crural muscles was measured in vivo using similar methodology as previously described for mice (Kalka et al., 2000, Proc Natl Acad Sci USA 97:3422-3427; Boutilier, 2001, J Exp Biol 204:3171-3181) After rats were anesthetized (2-2.5% isoflurane), the left hindlimb was aseptically prepared. The rat was then placed on a heated platform. The left knee was clamped and the left foot was secured to a custom-made foot plate that is attached to the shaft of an Aurora Scientific 305C-LR-FP servomotor, which in turn was controlled using a PC. Sterilized percutaneous needle electrodes were inserted through the skin for stimulation of the left common peroneal nerve. Electrical stimulus was applied using a Grass S88 stimulator with a constant current SIU (Grass Model PSIU6). Stimulation voltage and needle electrode placement were optimized first with a series of twitch contractions at 1 hz and then with 5 to 10 isometric contractions (400 ms train of 0.05-0.1 ms pulses at 100 Hz). Contractile function of the anterior crural muscles was assessed by measuring maximal isometric torque as a function of stimulation frequency (1-200 Hz). For real-time analysis of torque and length changes, voltage outputs were sampled at 4000 Hz, converted to a digital signal using an A/D board (National Instruments PCI 6221) and recorded using a PC loaded with a custom-made Labview®-based program (provided by the U.S. Army Institute of Surgical Research).

[5] = system: Rat tibialis anterior (TA) muscle tissues; assay: In vitro ischemic tibialis anterior muscle tissue survival (H&E, TUNEL); type: cell-based, Sprague Dawley rats; conditions: 5 mM injected, 3 days incubation
Description: Rat tibialis anterior (TA) muscle tissues were dissected immediately after sacrifice of Sprague Dawley rats (17 weeks old, 380-400 g, Harlan), injected with blank, 5 mM of adenosine or cladribine, and then incubated in 5 mL of complete media for 3 days.
The tissue samples were fixed in 10% neutral buffered formalin (Sigma-Aldrich), 6 μm sections were generated by a cryotome (Leica), and stained with hematoxyline and eosin (H&E) and with TUNEL staining. Microscopic analyses were performed using a light microscope (Zeiss M1) and ImagePro software.

Nc1nc(Cl)nc2c1ncn2[C@H]1C[C@H](O)[C@@H](CO)O1 [cladribine, 2-Chloro-2′-deoxyadenosine]
cell population under hypoxic condition (C2C12 mouse myoblasts [1]; 7 days hypoxia): maintained minimal population with significant difference when compared to control
proliferation after drug and hypoxia removed (C2C12 mouse myoblasts [1]): regained their proliferation capability
histological examination of skin flap (H&E) (ischemic skin flap; 3 days): better preservation of general tissue architecture, thickness of the skin and epidermis height
distal flap necrosis (skin discoloration) (ischemic skin flap; subcutaneous, day 3 post-operation): clearly reduced
recovery of metabolic state after drug removal ([2]; drugs removed on day 5): recovered their normal metabolic state once the drugs were removed
depression of cell metabolic rate (cell viability) in presence of ADA ([2]; normoxic conditions, with or without ADA, various doses): best able to inhibit ADA and depress the cells' metabolic rate; also recorded: maintained the cells in hypometabolic steady state the longest
conversion by ADA / stability towards adenosine degrading enzymes [2]: bypassed the conversion by ADA
conversion by ADA / stability towards adenosine degrading enzymes ([2]; listed as CDA): more stable than adenosine in the presence of adenosine degrading enzymes
metabolism after drug and hypoxia removed (C2C12 mouse myoblasts [3]; 5 mM, with or without ADA): regained metabolism activity
cellular metabolism under hypoxia (C2C12 mouse myoblasts [3]; 5 mM, with or without ADA, MTS): kept in hypometabolic steady state without being affected by ADA
metabolic activity per cell vs adenosine treated cells (C2C12 mouse myoblasts [3]; hypoxia, in the presence and absence of ADA): significantly lower metabolic activity per cell
TA muscle twitch isometric torque ([4]; 30 mM in 200 μL saline daily up to day 2, 7 days after injury): significantly increased
recovery in muscle function vs control group ([4]; 30 mM in 200 μL saline daily up to day 2): significant acceleration of recovery in muscle function
recovery in muscle function vs control group ([4]; 30 mM in 200 μL saline daily up to day 2, listed as CDA): significant increase in percent recovery up to day 11
newly forming vessels (H&E, immunostaining) ([4]; 30 mM in 200 μL saline daily up to day 2, vs saline group): more newly forming vessels
anterior crural muscle twitch isometric torque ([4]; 50 mM in 300 uL saline daily up to day 2, 7 days after injury): significantly increased
percent recovery of muscle function ([4]; day 3, 50 mM in 300 uL saline daily up to day 2): ~10%
percent recovery of muscle function ([4]; day 7, 50 mM in 300 uL saline daily up to day 2): ~35%
muscle structure (H&E) [5]: most preserved muscle structure
number of live nuclei (TUNEL) [5]: increased number of live nuclei
area of fiber ([5]; vs control and adenosine): significantly increased area of fiber
